# Where two headings read alike, the source gives them in different places.
# Assays:
# [1] = system: Plasmodium berghei (Pb-Luc) exoerythrocytic-stage parasites; conditions: for IC50: read-out: PbLuc_IC50
# [2] = system: HepG2-A16-CD81EGFP cells; conditions: for IC50: read-out: Tox_IC50, HepG2 cytotoxicity
# [3] = first series of columns, fraction of control
# [4] = sheet 2nd round, Pb-Luc exoerythrocytic stage, 10-point dose response, top concentration 10
# [5] = second series of columns (replicate), fraction of control
# [6] = sheet 2nd round, maximal inhibition in dose response
# [7] = first series, fraction of control
# [8] = second series, fraction of control
# [9] = 2nd round, maximal inhibition in dose series
structure (smiles),measurement,setting,value
C[C@H](CO)N1C[C@H](C)[C@H](CN(C)S(=O)(=O)c2ccc(F)cc2)OCCCC[C@H](C)Oc2ccc(N(C)C)cc2C1=O [BRD-K59130783-001-01-1],normalized signal at concentration 0.000508053,[1]; [3],0.8293
same,normalized signal at concentration 0.00152416,[1]; [3],0.8148
same,normalized signal at concentration 0.00457247,[1]; [3],0.8395
same,normalized signal at concentration 0.0137174,[1]; [3],0.9506
same,normalized signal at concentration 0.0411523,[1]; [3],0.8723
same,normalized signal at concentration 0.123457,[1]; [3],1.0641
same,normalized signal at concentration 0.37037,[1]; [3],0.9674
same,normalized signal at concentration 1.11111,[1]; [3],0.9129
same,normalized signal at concentration 3.33333,[1]; [3],0.9251
same,normalized signal at concentration 10,[1]; [3],0.7483
same,IC50,[1]; [4],> 10 µM
same,normalized signal at concentration 0.000508053,[1]; [5],1.007
same,normalized signal at concentration 0.00152416,[1]; [5],0.9488
same,normalized signal at concentration 0.00457247,[1]; [5],0.9241
same,normalized signal at concentration 0.0137174,[1]; [5],0.9817
same,normalized signal at concentration 0.0411523,[1]; [5],0.8684
same,normalized signal at concentration 0.123457,[1]; [5],0.9044
same,normalized signal at concentration 0.37037,[1]; [5],1.051
same,normalized signal at concentration 1.11111,[1]; [5],0.8044
same,normalized signal at concentration 3.33333,[1]; [5],0.946
same,normalized signal at concentration 10,[1]; [5],0.5139
same,PbLuc_max_inhibition (%),[1]; [6],49%
same,IC50,[2]; sheet 2nd round,> 10 µM
same,Tox_max_inhibition (%),[2]; [6],7%
O=C(O)C[C@H]1CC[C@@H]2[C@H](COC[C@@H](O)CN2S(=O)(=O)c2ccc(Oc3ccccc3)cc2)O1 [BRD-K61788733-001-01-3],normalized signal at concentration 0.000508053,[1]; [3],0.8641
same,normalized signal at concentration 0.00152416,[1]; [3],0.8788
same,normalized signal at concentration 0.00457247,[1]; [3],0.8741
same,normalized signal at concentration 0.0137174,[1]; [3],0.9455
same,normalized signal at concentration 0.0411523,[1]; [3],0.9154
same,normalized signal at concentration 0.123457,[1]; [3],0.9561
same,normalized signal at concentration 0.37037,[1]; [3],0.927
same,normalized signal at concentration 1.11111,[1]; [3],1.099
same,normalized signal at concentration 3.33333,[1]; [3],1.256
same,normalized signal at concentration 10,[1]; [3],1.046
same,IC50,[1]; [4],> 10 µM
same,normalized signal at concentration 0.000508053,[1]; [5],1.03
same,normalized signal at concentration 0.00152416,[1]; [5],0.992
same,normalized signal at concentration 0.00457247,[1]; [5],0.8804
same,normalized signal at concentration 0.0137174,[1]; [5],0.7616
same,normalized signal at concentration 0.0411523,[1]; [5],1.066
same,normalized signal at concentration 0.123457,[1]; [5],0.77
same,normalized signal at concentration 0.37037,[1]; [5],0.8648
same,normalized signal at concentration 1.11111,[1]; [5],0.993
same,normalized signal at concentration 3.33333,[1]; [5],1.071
same,normalized signal at concentration 10,[1]; [5],1.076
same,PbLuc_max_inhibition (%),[1]; [6],24%
same,IC50,[2]; sheet 2nd round,> 10 µM
same,Tox_max_inhibition (%),[2]; [6],4.62%
C/C=C/c1ccc([C@H]2[C@@H](CO)N(CC3CCCCC3)[C@H]2CNC(C)C)cc1 [BRD-K63968422-001-01-5],normalized signal at concentration 10,"[1]; first series of dose-response columns, fraction of control",0.94
same,normalized signal at concentration 0.000508053,[1]; [7],1.00
same,normalized signal at concentration 0.00152416,[1]; [7],1.12
same,normalized signal at concentration 0.00457247,[1]; [7],0.90
same,normalized signal at concentration 0.0137174,[1]; [7],1.14
same,normalized signal at concentration 0.0411523,[1]; [7],1.01
same,normalized signal at concentration 0.123457,[1]; [7],0.97
same,normalized signal at concentration 0.37037,[1]; [7],0.96
same,normalized signal at concentration 1.11111,[1]; [7],0.99
same,normalized signal at concentration 3.33333,[1]; [7],1.01
same,IC50,"[1]; sheet 2nd round, Broad compounds, dose response",> 10 µM
same,normalized signal at concentration 10,"[1]; second series of dose-response columns, fraction of control",0.85
same,normalized signal at concentration 0.000508053,[1]; [8],0.78
same,normalized signal at concentration 0.00152416,[1]; [8],1.01
same,normalized signal at concentration 0.00457247,[1]; [8],1.16
same,normalized signal at concentration 0.0137174,[1]; [8],1.05
same,normalized signal at concentration 0.0411523,[1]; [8],1.10
same,normalized signal at concentration 0.123457,[1]; [8],1.05
same,normalized signal at concentration 0.37037,[1]; [8],1.24
same,normalized signal at concentration 1.11111,[1]; [8],1.02
same,normalized signal at concentration 3.33333,[1]; [8],1.10
same,PbLuc_max_inhibition (%),[1]; [6],22%
same,IC50,[2]; sheet 2nd round,> 10 µM
same,Tox_max_inhibition (%),[2]; [6],9%
C[C@@H]1CN([C@H](C)CO)C(=O)c2cccc(NC(=O)c3ccc(-c4nccs4)cc3)c2O[C@H]1CN(C)C(=O)Nc1ccc(C(F)(F)F)cc1 [BRD-K64517877-001-01-9],PbLuc_max_inhibition (%),[1]; [9],27%
same,normalized signal at 0.000508053 (first series),"[1]; concentration 0.000508053, first replicate series, fraction of control",0.8077
same,normalized signal at 0.000508053 (second series),"[1]; concentration 0.000508053, second replicate series, fraction of control",1.002
same,normalized signal at 0.00152416 (first series),"[1]; concentration 0.00152416, first replicate series, fraction of control",0.8666
same,normalized signal at 0.00152416 (second series),"[1]; concentration 0.00152416, second replicate series, fraction of control",0.9304
same,normalized signal at 0.00457247 (first series),"[1]; concentration 0.00457247, first replicate series, fraction of control",0.8925
same,normalized signal at 0.00457247 (second series),"[1]; concentration 0.00457247, second replicate series, fraction of control",0.7834
same,normalized signal at 0.0137174 (first series),"[1]; concentration 0.0137174, first replicate series, fraction of control",1.197
same,normalized signal at 0.0137174 (second series),"[1]; concentration 0.0137174, second replicate series, fraction of control",0.7634
same,normalized signal at 0.0411523 (first series),"[1]; concentration 0.0411523, first replicate series, fraction of control",0.9517
same,normalized signal at 0.0411523 (second series),"[1]; concentration 0.0411523, second replicate series, fraction of control",0.9123
same,normalized signal at 0.123457 (first series),"[1]; concentration 0.123457, first replicate series, fraction of control",1.1239
same,normalized signal at 0.123457 (second series),"[1]; concentration 0.123457, second replicate series, fraction of control",0.9202
same,normalized signal at 0.37037 (first series),"[1]; concentration 0.37037, first replicate series, fraction of control",0.912
same,normalized signal at 0.37037 (second series),"[1]; concentration 0.37037, second replicate series, fraction of control",0.776
same,normalized signal at 1.11111 (first series),"[1]; concentration 1.11111, first replicate series, fraction of control",0.8174
same,normalized signal at 1.11111 (second series),"[1]; concentration 1.11111, second replicate series, fraction of control",0.8082
same,normalized signal at 3.33333 (first series),"[1]; concentration 3.33333, first replicate series, fraction of control",0.9935
same,normalized signal at 3.33333 (second series),"[1]; concentration 3.33333, second replicate series, fraction of control",0.7269
same,normalized signal at 10 (first series),"[1]; concentration 10, first replicate series, fraction of control",1.005
same,normalized signal at 10 (second series),"[1]; concentration 10, second replicate series, fraction of control",0.7551
same,IC50,"[1]; 2nd round, Broad DOS compounds, unit not printed (dose series head 10 to 0.000508053)",> 10 µM
same,Tox_max_inhibition (%),[2]; [9],9%
same,IC50,"[2]; 2nd round, unit inferred",> 10 µM
